These results are taken from ChEMBL document CHEMBL1122779, “Antiinflammatory agents. 3. Synthesis and pharmacological evaluation of 2-amino-3-benzoylphenylacetic acid and analogues” (J Med Chem, 1984).

The test system of data set [1] is Mus musculus. The experiment in a line: Oral analgesic activity was determined in mice by the acetylcholine-induced abdominal constriction assay upon ip administration of acetylcholine bromide 20 min following oral administration. The class given is functional. Particulars: Abdomen.
In data set [2] the test system is Mus musculus. As to the kind of experiment: Oral analgesic activity was determined in mice by the acetylcholine-induced abdominal constriction assay upon ip administration of acetylcholine bromide 5 hours following oral administration. Conditions: Abdomen. The class given is functional.
The subject of data set [3] is Rattus norvegicus. As to the kind of experiment: Percent change in average volume of pleural fluid at a dose 4 mg/kg of indomethacin and 5-h response is evaluated by Evans blue-carrageenan induced pleural effusion assay. The data set is classed as functional.
Data set [4] concerns Rattus norvegicus. As to the kind of experiment: Percent change in average volume of pleural fluid at a dose of 100 mg/kg and 5-h response by Evans blue-carrageenan induced pleural effusion assay. The data set is classed as functional.
Data set [5] deals with Rattus norvegicus. The experiment in a line: Percent change in average volume of pleural fluid at a dose of 4.0 mg/kg and 5-h response by Evans blue-carrageenan induced pleural effusion assay. The class given is functional.
The species named for data set [6] is Rattus norvegicus. The experiment in a line: Evaluated for acute potency in pleural effusion assay. The class given is functional.
The species named for data set [7] is Rattus norvegicus. As to the kind of experiment: Evaluated for chronic potency in adjuvant arthritis assay. The class given is functional.
In data set [8] the test system is Rattus norvegicus. As to the kind of experiment: Acute gastric toxicity (single oral dose) in male fasted rats. The class given is organism-based, Stomach. Conditions: in vivo.
Another data set has as its target T1, Cyclooxygenase (Bos taurus, UniProt O62664+O62698).
T1 sequence (O62664 whole entry): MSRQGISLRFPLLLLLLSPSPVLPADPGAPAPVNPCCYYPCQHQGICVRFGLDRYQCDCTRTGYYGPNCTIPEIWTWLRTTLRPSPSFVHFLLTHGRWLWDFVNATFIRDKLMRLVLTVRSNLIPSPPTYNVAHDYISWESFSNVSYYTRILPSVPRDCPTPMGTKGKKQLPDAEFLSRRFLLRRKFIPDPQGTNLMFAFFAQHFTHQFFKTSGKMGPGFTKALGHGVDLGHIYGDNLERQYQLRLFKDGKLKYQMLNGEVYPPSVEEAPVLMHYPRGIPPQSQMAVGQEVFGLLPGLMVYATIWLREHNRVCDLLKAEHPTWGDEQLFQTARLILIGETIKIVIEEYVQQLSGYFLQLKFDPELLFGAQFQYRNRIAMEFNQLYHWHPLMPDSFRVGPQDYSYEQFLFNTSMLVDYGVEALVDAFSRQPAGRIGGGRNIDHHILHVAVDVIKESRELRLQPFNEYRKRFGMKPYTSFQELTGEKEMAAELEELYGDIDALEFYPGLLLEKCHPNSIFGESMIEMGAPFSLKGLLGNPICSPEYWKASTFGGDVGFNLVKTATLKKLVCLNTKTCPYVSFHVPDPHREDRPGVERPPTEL
T1 sequence (O62698 whole entry): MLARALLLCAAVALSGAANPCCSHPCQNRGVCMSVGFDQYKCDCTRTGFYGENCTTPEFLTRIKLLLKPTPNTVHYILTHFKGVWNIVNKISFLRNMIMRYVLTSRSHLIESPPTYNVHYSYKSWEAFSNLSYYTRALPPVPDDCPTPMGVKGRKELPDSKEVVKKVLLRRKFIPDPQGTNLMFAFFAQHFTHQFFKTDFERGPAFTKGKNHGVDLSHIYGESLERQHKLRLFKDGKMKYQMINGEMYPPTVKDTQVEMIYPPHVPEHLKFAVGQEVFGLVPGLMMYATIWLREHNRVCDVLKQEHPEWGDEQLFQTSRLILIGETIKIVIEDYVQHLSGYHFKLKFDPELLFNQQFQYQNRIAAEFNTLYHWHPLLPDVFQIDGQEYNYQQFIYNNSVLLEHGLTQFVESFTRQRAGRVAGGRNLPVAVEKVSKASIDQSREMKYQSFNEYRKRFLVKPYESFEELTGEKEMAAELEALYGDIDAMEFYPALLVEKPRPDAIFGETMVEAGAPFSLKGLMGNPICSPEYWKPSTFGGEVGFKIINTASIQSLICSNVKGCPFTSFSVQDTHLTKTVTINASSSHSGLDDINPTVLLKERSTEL

Molecules are shown by their SMILES. Where only a bound is given, the exact number is not on record here.

Description for Cyclooxygenase: Inhibition of prostaglandin G/H synthase obtained from bovine seminal vesicles.

The ED50 is the midpoint of the dose-response relation. By IC50 is commonly meant the concentration that gives 50% inhibition. Regarding `Nc1c(CC(=O)[O-])cc(F)cc1C(=O)c1ccc(Cl)cc1Cl.[Na+]`, the figures for the ED50 in the data set on Mus musculus [1] and with Mus musculus [2] were 0.16 mg/kg and 0.65 mg/kg, respectively. For the same compound, the Change in the data set on Rattus norvegicus [3] was -45%; in the data set on Rattus norvegicus [4], -46%; with Rattus norvegicus [5] it was -41%. Also, the Potency worked out at 1.2 in the data set filed under Rattus norvegicus [6] and 0.13 in the data set listed under Rattus norvegicus [7]. Besides, the Gastric toxicity in the data set with Rattus norvegicus [8] turned out to be 1. Moreover, at Cyclooxygenase, the IC50 was found to be 0.1 µM.
As to `Nc1c(CC(=O)[O-])cccc1C(=O)c1cccc(Cl)c1.[Na+]`, the Change in the data set on Rattus norvegicus [3] is on record as -33%; in the data set on Rattus norvegicus [4], -35%; with Rattus norvegicus [5] it was -15%. On Cyclooxygenase, this compound showed a half-maximal inhibitory concentration (IC50) above 1000 µM.
On the same counts, the results for `Cc1ccc(C(=O)c2cccc(CC(=O)[O-])c2N)c(C)c1.[Na+]` are -40%, -38%, -3% and 0.1 µM.
For `Nc1c(CC(=O)[O-])cccc1C(=O)c1ccccc1Cl.[Na+]` the same measures were -33%, -42%, -22% and 0.3 µM.
Regarding `Cc1cc(CC(=O)[O-])c(N)c(C(=O)c2ccc(F)cc2)c1.[Na+]`, the figures for the Change with Rattus norvegicus [3], in the data set on Rattus norvegicus [4] and in the data set with Rattus norvegicus [5] were -42%, -35% and 0%, respectively. The compound further returned a half-maximal inhibitory concentration (IC50) against Cyclooxygenase of 17 µM.
For `Nc1c(CC(=O)[O-])cc(Cl)cc1C(=O)c1ccc(O)cc1.[Na+]` the same measures were -40%, -21%, -3% and 30 µM.
As for `CSc1ccc(C(=O)c2cc(F)cc(CC(=O)[O-])c2N)cc1.[Na+]`, the 50% effective dose (ED50) with Mus musculus [1] is 0.1 mg/kg; in the data set with Mus musculus [2], above 1 mg/kg. The values for the Change in the data set on Rattus norvegicus [3] and in the data set with Rattus norvegicus [5] were -33% and -28%, respectively. The Potency in the data set filed under Rattus norvegicus [6] amounted to 0.4; in the data set listed under Rattus norvegicus [7], 0.03. The compound also registered a 50% inhibitory concentration (IC50) on Cyclooxygenase of 0.008 µM.
For the compound `Nc1c(CC(=O)[O-])cccc1C(=O)c1ccc(-c2ccccc2)cc1.[Na+]`, the Change is -36% in the data set on Rattus norvegicus [3], -14% in the data set on Rattus norvegicus [4] and -15% with Rattus norvegicus [5]. This compound also came in with a half-inhibitory concentration (IC50) on Cyclooxygenase of 0.08 µM.
In the case of `Cc1ccccc1C(=O)c1cccc(CC(=O)[O-])c1N.[Na+]`, the figures for the Change in the data set with Rattus norvegicus [3], in the data set with Rattus norvegicus [4] and with Rattus norvegicus [5] were -25%, -32% and -13%, respectively. At Cyclooxygenase, the IC50 stood at 1 µM.
For the compound `Cc1ccc(CC(=O)[O-])c(N)c1C(=O)c1ccccc1.[Na+]`, the Change in the data set on Rattus norvegicus [3] is -1%; in the data set on Rattus norvegicus [4], -13%; in the data set with Rattus norvegicus [5], -38%. Further, on Cyclooxygenase, the IC50 is above 1000 µM.
Consider `COc1cc(CC(=O)[O-])c(N)c(C(=O)c2ccc(Cl)cc2)c1.[Na+]`, for which the Change is listed as -37% in the data set with Rattus norvegicus [3], -36% in the data set with Rattus norvegicus [4] and -26% in the data set on Rattus norvegicus [5]. The IC50 on Cyclooxygenase was 12 µM.
Turning to `Cc1cc(CC(=O)[O-])c(N)c(C(=O)c2ccccc2)c1.[Na+]`, the Change with Rattus norvegicus [3] is -25%; in the data set on Rattus norvegicus [4], -35%; in the data set on Rattus norvegicus [5], -11%. This compound also registered an IC50 at Cyclooxygenase of 11 µM.
Regarding `Cc1ccc(C(=O)c2cc(Cl)cc(CC(=O)[O-])c2N)cc1.[Na+]`, the median effective dose (ED50) came to 0.1 mg/kg with Mus musculus [1] and 0.43 mg/kg in the data set on Mus musculus [2]. Further, the values for the Change with Rattus norvegicus [3], with Rattus norvegicus [4] and in the data set on Rattus norvegicus [5] were -40%, -44% and -35%, respectively. Besides, the Potency in the data set filed under Rattus norvegicus [6] was found to be 1.6; in the data set listed under Rattus norvegicus [7], 0.1. The Gastric toxicity in the data set on Rattus norvegicus [8] is 0.7. This compound displayed an IC50 on Cyclooxygenase of 0.02 µM.
Regarding `COc1cc(CC(=O)[O-])c(N)c(C(=O)c2ccc(Br)cc2)c1.[Na+]`, the Change is recorded as -25% with Rattus norvegicus [3], -33% in the data set with Rattus norvegicus [4] and -28% in the data set with Rattus norvegicus [5]. The IC50 on Cyclooxygenase worked out at 0.9 µM.
Turning to `COc1ccc(C(=O)c2cccc(CC(=O)[O-])c2N)cc1.[Na+]`, the Change is listed as -35% in the data set with Rattus norvegicus [3] and -10% in the data set with Rattus norvegicus [5]. Further, on Cyclooxygenase, the IC50 was determined as 68 µM.
For `Nc1c(CC(=O)[O-])cc(Cl)cc1C(=O)c1ccccc1.[Na+]` the same measures were -35%, -17% and 1 µM.
For `Cc1ccc(C(=O)c2cccc(CC(=O)[O-])c2N)cc1.[Na+]` the same measures were -39%, -17% and 0.3 µM.
Regarding `Nc1c(CC(=O)[O-])cccc1C(=O)c1ccc(C(F)(F)F)cc1.[Na+]`, the Change in the data set on Rattus norvegicus [4] was -24%; in the data set on Rattus norvegicus [5] it was -38%. This compound yielded an IC50 against Cyclooxygenase of 1 µM.
Consider `Cc1ccc(C(=O)c2cc(F)cc(CC(=O)[O-])c2N)cc1.[Na+]`, for which the Change in the data set on Rattus norvegicus [3] was -36%; in the data set on Rattus norvegicus [4] it was -49%; with Rattus norvegicus [5], -32%. On Cyclooxygenase, the IC50 turned out to be 0.07 µM.
For `Cc1ccc(C(=O)c2cc(C)cc(CC(=O)[O-])c2N)cc1.[Na+]` the same measures were -42%, -33%, -12% and 30 µM.
For `CSc1ccc(C(=O)c2cc(C)cc(CC(=O)[O-])c2N)cc1.[Na+]` the same measures were -42%, -47%, -26% and 0.4 µM.
On the same counts, the results for `Cc1ccc(C(=O)c2ccccc2)c(N)c1CC(=O)[O-].[Na+]` are -38%, -39%, 2% and 3 µM.
The compound `Nc1c(CC(=O)[O-])cc(F)cc1C(=O)c1ccc(F)cc1.[Na+]` came in with an ED50 in the data set on Mus musculus [1] of 0.71 mg/kg. Besides, the results for the Change in the data set with Rattus norvegicus [3], with Rattus norvegicus [4] and in the data set on Rattus norvegicus [5] were -40%, -42% and -42%, respectively. Moreover, the values for the Potency in the data set listed under Rattus norvegicus [6] and in the data set filed under Rattus norvegicus [7] were 1.4 and 0.01, respectively. This compound also returned a Gastric toxicity in the data set with Rattus norvegicus [8] of 0.37. This compound also came in with an IC50 against Cyclooxygenase of 0.2 µM.
For the compound `CSc1ccc(C(=O)c2cccc(CC(=O)[O-])c2N)cc1.[Na+]`, the Change is -30% with Rattus norvegicus [3] and -21% in the data set with Rattus norvegicus [5]. Besides, at Cyclooxygenase, the concentration for half-maximal inhibition (IC50) came to 0.1 µM.
As to `Nc1c(CC(=O)[O-])cccc1C(=O)c1ccc(F)cc1.[Na+]`, the Change in the data set with Rattus norvegicus [3] is given as -35%; in the data set with Rattus norvegicus [4] it was -36%; in the data set on Rattus norvegicus [5], 0%. The same compound gave an IC50 against Cyclooxygenase of 0.9 µM.
For `Cc1cc(CC(=O)[O-])c(N)c(C(=O)c2ccc(Cl)cc2Cl)c1.[Na+]` the same measures were -45%, -43%, -24% and 1 µM.
On to `Nc1c(CC(=O)[O-])cccc1C(=O)c1ccc(Cl)c(Cl)c1.[Na+]`, for which the results for the Change in the data set on Rattus norvegicus [3] and in the data set with Rattus norvegicus [5] were -30% and -10%, respectively. This compound also yielded a concentration for half-maximal inhibition (IC50) against Cyclooxygenase of 50 µM.
With `Nc1c(CC(=O)[O-])cc(F)cc1C(=O)c1ccccc1.[Na+]`, the Change with Rattus norvegicus [3] is reported as -20%; with Rattus norvegicus [4] it was -33%; in the data set on Rattus norvegicus [5], -9%. Moreover, on Cyclooxygenase, the half-inhibitory concentration (IC50) was determined as 0.2 µM.
For `Nc1c(CC(=O)[O-])cc(Br)cc1C(=O)c1ccc(Cl)cc1.[Na+]` the same measures were -40%, -42%, -26% and 0.6 µM.
In the case of `Nc1c(CC(=O)[O-])ccc(Cl)c1C(=O)c1ccccc1.[Na+]`, the Change with Rattus norvegicus [3] is given as -35%; in the data set with Rattus norvegicus [4], -45%; in the data set on Rattus norvegicus [5], -4%. Besides, the IC50 against Cyclooxygenase amounted to 37 µM.
